Experimental data published in PMC10958225, “Therapeutic potential of orally applied KB-R7943 in streptozotocin-induced neuropathy in rats” (Heliyon, 2024).
Read-outs that look alike come from different tables or passages of the source.

Assay: Pilot PK study of orally applied KB-R7943 in control and STZ-induced diabetic rats (LC-MS/MS)
Type: in vivo, rat
Conditions: for AUC(0-inf) / Cmax / Tmax / half-life / AUC(0-t) / Kp: Wistar, rat, po, 10 mg/kg; for AUC(0-t): read-out: AUC(0-24); for Kp: read-out: AUC(0-24) tissue/AUC (0-24) plasma; for Vd (volume of distribution): dose/(λ × AUC 0–24); for Cl (clearance): dose/AUC0-24
Protocol: Chromatographic separation was achieved by injecting 5 μL of the sample extract (on each instrument) into a Zorbax SB-C8 150 mm × 4.6 mm × 1.8 μm column. The mobile phase was a mixture in a gradient mode of two components: solvent A - 0.1% formic acid in water and solvent B - 0.1% formic acid in acetonitrile. The flow rate was set to 0.400 ml/min with the following gradient program: 0.0–0.5 min 90% solvent A, 0.5–10.0 min 10% solvent A, 10.0–12.0 min 10% solvent A, 12.0–12.1 min 90% solvent A, 12.1–13.0 min 90% solvent A. Mass spectrometric detection was performed with positive electrospray (ESI(+)). Analytes were determined by selecting two characteristic target reactions (MRM transitions) and the retention time of the analytes. The following MS parameters were kept constant during the analysis: nebulizer voltage 4800 V for positive ionization. The temperature of the cone was set at 300 °C, the temperature of the heated probe at 400 °C, the gas flowed through the nebulizer at 3 l/min, and the flow rate of the drying gas was 10 l/min. Two product ions and one precursor ion were selected for analyte identification (Table 1).
200 mg of the sample (plasma, urine, homogenate) was transferred into 1.5 ml Eppendorf tubes, 10 μl of the internal standard solution was added and thoroughly mixed using a rotary shaker, and then 1 ml of the extracting solution of 0.1% formic acid in acetonitrile, was added. After ultrasonic stirring for 15 min, the tubes were centrifuged at 14,000 rpm for 5 min. Approximately 1 ml of the supernatant was decanted and transferred to a 15 ml Falcon plastic tube, 1 ml of the extracting solution (0.1% formic acid in acetonitrite) was added to the precipitate, and the extraction procedure was repeated. […] successive extracts were combined, 3 ml of hexane was added, and mixed on a rotary shaker for 5 min, after which the top layer of hexane was separated, and the purification procedure was repeated 2 more times. The purified extract was transferred to a 5 ml glass vial and evaporated to dryness in an FMS Super Vap 24 at 45 °C under nitrogen flow. 200 μL of the extractant was added to the vials, and the remains of the analyte were washed off the walls of the vial by stirring the solution on a rotary shaker for 3 min, after which the resulting solution was transferred into glass vials for HPLC analysis. With each batch of samples, appropriate matrix controls were prepared and extracted with the addition of KB- R7943 at 0, 0.1, 1, 10, 100, 1000, 5000, 20,000, and 200,000 ng/g and extracted simultaneously with the samples (Fig. 2).
Experiment 1 (Fig. 3A) was designed as a pilot PK study to assess the body distribution of orally applied KB-R7943 and to inform about some important PK parameters. Two groups, i.e., controls (n = 9) and STZ-induced diabetic models (n = 9), were included in the experiment. Each rat was placed in an individual metabolic cage and kept there until the administration of the drug. The KB-R7943 was applied once, p.o., in a 10 mg/kg dose with gavage. OraPlus was a vehiculum (16 gauge feeding tube 10 ml/kg). After applying of the KB-R7943, each rat was returned to their cage, and blood and urine samples were collected at 1st, 6th, and 24th hours (different n = 3 at each time-point). Metabolic cages were specially designed to separate feces from urine through the funnel, and a separation cone was used.
Blood samples were collected in EDTA-containing tubes with cardiopunction under ketamine-xylasine anesthesia (100 mg/kg and 10 mg/kg, respectively). After 1 h incubation (+4/+8 °C), blood was centrifugated 1000 g, and the plasma was used for the analysis after that.
Isolation of tissue samples of the heart and parts of the brain was performed after perfusion of the upper body of the rat with a phosphate-buffered saline (PBS) using a perfusion pump (BT100-2J LongerPump, Halma PLC, UK). Homogenates were prepared as 1:4 ratios (v/v) with PBS and stored at −80 °C until analysis. […]

[1] = AUC tissue/AUC plasma, 10 mg/kg p.o. once
[2] = cortex, STZ-diabetic rats, 10 mg/kg p.o. once
[3] = cortex, control rats, 10 mg/kg p.o. once
[4] = cortex, cortex, STZ-diabetic rats, 10 mg/kg p.o. once
[5] = cortex, cortex, control rats, 10 mg/kg p.o. once
[6] = heart, STZ-diabetic rats, 10 mg/kg p.o. once
[7] = heart, control rats, 10 mg/kg p.o. once
[8] = hippocampus, STZ-diabetic rats, 10 mg/kg p.o. once
[9] = hippocampus, control rats, 10 mg/kg p.o. once
[10] = hippocampus, hippocampus, STZ-diabetic rats, 10 mg/kg p.o. once
[11] = hippocampus, hippocampus, control rats, 10 mg/kg p.o. once
[12] = hypothalamus, STZ-diabetic rats, 10 mg/kg p.o. once
[13] = hypothalamus, control rats, 10 mg/kg p.o. once
[14] = hypothalamus, hypothalamus, STZ-diabetic rats, 10 mg/kg p.o. once
[15] = hypothalamus, hypothalamus, control rats, 10 mg/kg p.o. once
[16] = plasma, STZ-diabetic rats, 10 mg/kg p.o. once
[17] = plasma, control rats, 10 mg/kg p.o. once
[18] = urine, STZ-diabetic rats, 10 mg/kg p.o. once
[19] = urine, control rats, 10 mg/kg p.o. once

With `N=C(N)SCCc1ccc(OCc2ccc([N+](=O)[O-])cc2)cc1` [KB-R7943, [(2-{4-[(4-nitrophenyl)methoxy]phenyl}ethyl)sulfanyl]methanimidamide] the “heart penetration, times higher in control group vs. diabetic rats” value [1] was 1.2 times, the “hippocampus penetration, times higher in control group vs. diabetic rats” value [1] was “over 2.5 times” and the AUC(0-inf) [2] was 1000 ng·h/mL. It also gave a Cmax [2] of 103 ng/mL, a Tmax [2] of 1 h and a half-life [2] of 7.7 h. The Cmax [3] was 11.5 ng/mL, the Tmax [3] was 24 h and the AUC(0-t) [4] was 880 ng·h/mL. It also gave a Kp [4] of 14.5, an AUC(0-t) [5] of 232 ng·h/mL and a Kp [5] of 14.2. The Cmax [6] was 5600 ng/mL, the Tmax [6] was 1 h and the half-life [6] was 5.7 h. The Cmax [7] was 893 ng/mL, the Tmax [7] was 1 h and the half-life [7] was 7 h. The Kp (heart, heart, STZ-diabetic rats, 10 mg/kg p.o. once) was 499, the Kp (heart, heart, control rats, 10 mg/kg p.o. once) was 622 and the AUC(0-inf) [8] was 865 ng·h/mL. For the same compound, the Cmax [8] was 57 ng/mL, the Tmax [8] was 1 h and the half-life [8] was 11.6 h. It also gave a Cmax [9] of 39.6 ng/mL, a Tmax [9] of 24 h and an AUC(0-t) [10] of 645 ng·h/mL. It also gave a Kp [10] of 10.7, an AUC(0-t) [11] of 449 ng·h/mL and a Kp [11] of 27.4. It also gave an AUC(0-inf) [12] of 1020 ng·h/mL, a Cmax [12] of 75 ng/mL and a Tmax [12] of 1 h. It also gave a half-life [12] of 13.7 h, a Cmax [13] of 9.5 ng/mL and a Tmax [13] of 24 h. It also gave an AUC(0-t) [14] of 668 ng·h/mL, a Kp [14] of 11 and an AUC(0-t) [15] of 215 ng·h/mL. The Kp [15] was 13.1, the AUC(0-inf) [16] was 61.7 ng·h/mL and the Cmax [16] was 11 ng/mL. For the same compound, the Tmax [16] was 1 h, the half-life [16] was 4.2 h and the AUC(0-inf) [17] was 17.7 ng·h/mL. For the same compound, the Cmax [17] was 3.2 ng/mL, the Tmax [17] was 1 h and the half-life [17] was 6.1 h. The AUC(0-t) (plasma, plasma, STZ-diabetic rats, 10 mg/kg p.o. once) was 60.6 ng·h/mL, the AUC(0-t) (plasma, plasma, control rats, 10 mg/kg p.o. once) was 16.4 ng·h/mL and the Tmax (plasma, systemic circulation after oral application, rats) was roughly 1 h. For the same compound, the Cmax [18] was 59.3 ng/mL, the Tmax [18] was 24 h and the Cmax [19] was 47.2 ng/mL. It also gave a Tmax [19] of 24 h, an AUC(0-t) (urine, urine, STZ-diabetic rats, 10 mg/kg p.o. once) of 974 ng·h/mL and an AUC(0-t) (urine, urine, control rats, 10 mg/kg p.o. once) of 727 ng·h/mL. For the same compound, the “β of linear regression Ln(Conc) vs time” value (cortex concentration, controls, 10 mg/kg p.o. once) was “β = 0.015, p = 0.703”, the “β of linear regression Ln(Conc) vs time” value (cortex concentration, diabetes, 10 mg/kg p.o. once) was “β = −0.075, p = 0.008” and the “%Extrap” value [2] was 12,20%. For the same compound, the “ƛ (terminal slope)” value [2] was −0.07, the “%Extrap” value [3] was 142,00% and the “ƛ (terminal slope)” value [3] was 0.02. For the same compound, the “β of linear regression Ln(Conc) vs time” value (heart concentration, controls, 10 mg/kg p.o. once) was “β = −0.107, p = 0.003”, the “β of linear regression Ln(Conc) vs time” value (heart concentration, diabetes, 10 mg/kg p.o. once) was “β = −0.125, p = 0.026” and the “%Extrap” value [6] was 6,20%. The “ƛ (terminal slope)” value [6] was −0.12, the “%Extrap” value [7] was 8,4% and the “ƛ (terminal slope)” value [7] was −0.11. For the same compound, the “β of linear regression Ln(Conc) vs time” value (hippocampus concentration, controls, 10 mg/kg p.o. once) was “β = −0.037, p = 0.283”, the “β of linear regression Ln(Conc) vs time” value (hippocampus concentration, diabetes, 10 mg/kg p.o. once) was “β = −0.048, p = 0.097” and the “%Extrap” value [8] was 25,40%. The “ƛ (terminal slope)” value [8] was −0.05, the “ƛ (terminal slope)” value [9] was 0.04 and the “β of linear regression Ln(Conc) vs time” value (hypothalamus concentration, controls, 10 mg/kg p.o. once) was “β = −0.007, p = 0.830”. For the same compound, the “β of linear regression Ln(Conc) vs time” value (hypothalamus concentration, diabetes, 10 mg/kg p.o. once) was “β = −0.045, p = 0.127”, the “%Extrap” value [12] was 34,50% and the “ƛ (terminal slope)” value [12] was −0.04. The “%Extrap” value [13] was 111,50%, the “ƛ (terminal slope)” value [13] was 0.01 and the “β of linear regression Ln(Conc) vs time” value (plasma concentration, controls, 10 mg/kg p.o. once) was “β = 0.094, p = 0.036”. For the same compound, the “β of linear regression Ln(Conc) vs time” value (plasma concentration, diabetes, 10 mg/kg p.o. once) was “β = 0.163, p = 0.017”, the “AUC(0-24), times higher in rats with diabetes vs. controls” value (plasma, 10 mg/kg p.o. once) was “Over 3 times” and the “Vd, times lower in rats with diabetes vs. controls” value (plasma, 10 mg/kg p.o. once) was “over 7 times”. For the same compound, the “decline of the plasma concentration, rats with diabetes vs. controls” value (plasma, 10 mg/kg p.o. once) was “over one and half times faster decline”, the “systemic clearance, times lower in rats with diabetes vs. controls” value (plasma, 10 mg/kg p.o. once) was “over 4 times” and the “%Extrap” value [16] was 1,90%. For the same compound, the “ƛ (terminal slope)” value [16] was −0.16, the “Vd (volume of distribution)” value [16] was 288.78 L and the “Cl (clearance)” value [16] was 46.20 L/h. The “%Extrap” value [17] was 7,40%, the “Vd (volume of distribution)” value [17] was 2100.27 L and the “Cl (clearance)” value [17] was 189.02 L/h. For the same compound, the “β of linear regression Ln(Conc) vs time” value (urine concentration, controls, 10 mg/kg p.o. once) was “β = −0.074, p = 0.158”, the “β of linear regression Ln(Conc) vs time” value (urine concentration, diabetes, 10 mg/kg p.o. once) was “β = −0.041, p = 0.455” and the “%Extrap” value [18] was 196,30%. The “ƛ (terminal slope)” value [18] was −0.04 and the “ƛ (terminal slope)” value [19] was 0.07.
